Reference: ChEMBL document CHEMBL4308904 (Bioorg Med Chem, 2019)
pIC50, pKi: −log10 of the molar value. Calls of active or inactive are those of the source. The rule behind the calls is not given here.

What was measured:
[1] = target: T1, Lysine-specific histone demethylase 1A (Homo sapiens, UniProt O60341)
Description: Inhibition of LSD1 (unknown origin) by fluorescence assay

[2] = target: T1, Lysine-specific histone demethylase 1A; assay: Inhibition of LSD1 (unknown origin)
MDA-MB-231 [3] = assay: Antiproliferative activity against human MDA-MB-231 cells transfected with LSD1 siRNA assessed as reduction in EdU incorporation at 8 uM after 24 hrs by Hoechst 33342 staining-based confocal laser scanning microscopic analysis; assay type: functional, cell-based
MDA-MB-231 [4] = assay: Antiproliferative activity against human MDA-MB-231 cells transfected with NC siRNA after 24 hrs by MTT assay; assay type: functional, cell-based
[5] = target: T1, Lysine-specific histone demethylase 1A; assay: Inhibition of LSD1 in human MDA-MB-231 cells assessed as increase in H3K4me2 methylation by Western blot analysis; assay type: cell-based
MDA-MB-231 [6] = assay: Antiproliferative activity against human MDA-MB-231 cells transfected with LSD1 siRNA after 24 hrs by MTT assay; assay type: functional, cell-based
MDA-MB-231 [7] = assay: Induction of apoptosis in human MDA-MB-231 cells assessed as increase in BAX/Bcl-2 protein ratio at 8 uM after 24 hrs by Western blot analysis; assay type: functional, cell-based
MDA-MB-231 [8] = assay: Induction of apoptosis in human MDA-MB-231 cells assessed as necrosis cells level at 8 uM after 24 hrs by Annexin V-FITC/propidium iodide staining-based flow cytometric analysis relative to control; assay type: functional
MDA-MB-231 [9] = assay: Induction of apoptosis in human MDA-MB-231 cells transfected with LSD1 siRNA assessed as increase in cleaved caspase-3 level at 8 uM after 24 hrs by Western blot analysis; assay type: functional, cell-based
MDA-MB-231 [10] = assay: Induction of apoptosis in human MDA-MB-231 cells transfected with LSD1 siRNA assessed as increase in cleaved PARP level at 8 uM after 24 hrs by Western blot analysis; assay type: functional, cell-based
MDA-MB-231 [11] = assay: Induction of apoptosis in human MDA-MB-231 cells assessed as viable cells level at 8 uM after 24 hrs by Annexin V-FITC/propidium iodide staining-based flow cytometric analysis relative to control; assay type: functional
MDA-MB-231 [12] = assay: Induction of apoptosis in human MDA-MB-231 cells assessed as loss of mitochondrial membrane potential at 8 uM after 24 hrs by JC-1 staining-based flow cytometric analysis; assay type: functional, cell-based
MDA-MB-231 [13] = assay: Induction of apoptosis in human MDA-MB-231 cells assessed as late apoptosis level at 8 uM after 24 hrs by Annexin V-FITC/propidium iodide staining-based flow cytometric analysis relative to control; assay type: functional
MDA-MB-231 [14] = assay: Induction of apoptosis in human MDA-MB-231 cells transfected with LSD1 siRNA assessed as increase in cleaved caspase-9 level at 8 uM after 24 hrs by Western blot analysis; assay type: functional, cell-based
[15] = target: Lysine-specific demethylase 5A (Homo sapiens) (UniProt P29375); assay: Inhibition of JARID1 in human MDA-MB-231 cells assessed as effect on H3K4me3 methylation by Western blot analysis; assay type: cell-based
Lysine-specific demethylase 5A (Homo sapiens), sequence (P29375 whole entry): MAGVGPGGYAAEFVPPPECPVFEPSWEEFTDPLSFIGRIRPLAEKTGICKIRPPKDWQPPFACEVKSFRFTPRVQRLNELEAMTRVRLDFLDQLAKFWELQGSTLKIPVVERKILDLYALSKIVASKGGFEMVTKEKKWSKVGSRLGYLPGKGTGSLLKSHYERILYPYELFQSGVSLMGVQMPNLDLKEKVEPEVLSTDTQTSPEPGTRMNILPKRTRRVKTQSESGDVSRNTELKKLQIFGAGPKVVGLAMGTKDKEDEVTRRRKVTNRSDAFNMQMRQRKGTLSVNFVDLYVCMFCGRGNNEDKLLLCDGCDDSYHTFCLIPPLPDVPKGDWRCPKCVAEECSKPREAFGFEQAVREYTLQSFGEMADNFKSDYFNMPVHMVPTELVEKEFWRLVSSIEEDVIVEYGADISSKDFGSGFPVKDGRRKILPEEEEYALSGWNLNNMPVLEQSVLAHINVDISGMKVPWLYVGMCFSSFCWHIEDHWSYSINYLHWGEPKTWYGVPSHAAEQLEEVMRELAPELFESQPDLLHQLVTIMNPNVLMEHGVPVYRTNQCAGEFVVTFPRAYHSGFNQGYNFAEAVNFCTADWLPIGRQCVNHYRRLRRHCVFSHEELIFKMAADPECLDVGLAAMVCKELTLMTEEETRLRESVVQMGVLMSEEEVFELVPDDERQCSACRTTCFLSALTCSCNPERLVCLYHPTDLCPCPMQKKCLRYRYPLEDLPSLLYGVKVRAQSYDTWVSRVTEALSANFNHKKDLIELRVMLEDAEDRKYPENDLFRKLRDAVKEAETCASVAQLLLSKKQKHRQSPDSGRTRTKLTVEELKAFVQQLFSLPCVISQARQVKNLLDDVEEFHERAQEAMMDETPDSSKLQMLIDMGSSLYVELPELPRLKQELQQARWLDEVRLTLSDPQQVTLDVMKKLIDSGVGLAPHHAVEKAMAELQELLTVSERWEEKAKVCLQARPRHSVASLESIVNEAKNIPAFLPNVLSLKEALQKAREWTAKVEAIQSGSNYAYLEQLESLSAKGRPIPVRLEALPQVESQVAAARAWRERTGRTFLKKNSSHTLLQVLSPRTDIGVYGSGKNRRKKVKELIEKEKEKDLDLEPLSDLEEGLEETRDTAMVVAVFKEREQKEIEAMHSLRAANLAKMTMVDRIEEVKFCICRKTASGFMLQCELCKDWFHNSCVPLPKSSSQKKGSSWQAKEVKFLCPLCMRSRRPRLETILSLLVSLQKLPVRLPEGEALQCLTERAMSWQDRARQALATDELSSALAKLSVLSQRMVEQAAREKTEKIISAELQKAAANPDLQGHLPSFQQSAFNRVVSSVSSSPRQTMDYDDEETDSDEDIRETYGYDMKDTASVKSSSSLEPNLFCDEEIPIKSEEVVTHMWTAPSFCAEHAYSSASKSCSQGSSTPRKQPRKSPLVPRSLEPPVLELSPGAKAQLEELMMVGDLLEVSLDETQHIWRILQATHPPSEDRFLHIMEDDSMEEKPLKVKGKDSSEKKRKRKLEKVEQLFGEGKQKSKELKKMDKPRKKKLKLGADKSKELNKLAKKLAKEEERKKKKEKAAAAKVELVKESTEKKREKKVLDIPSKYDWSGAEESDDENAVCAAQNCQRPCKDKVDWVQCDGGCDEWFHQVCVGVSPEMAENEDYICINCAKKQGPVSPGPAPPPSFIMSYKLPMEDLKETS

MDA-MB-231 [16] = assay: Induction of apoptosis in human MDA-MB-231 cells transfected with LSD1 siRNA assessed as increase in BAX/Bcl-2 protein ratio at 8 uM after 24 hrs by Western blot analysis; assay type: functional, cell-based
MDA-MB-231 [17] = assay: Induction of apoptosis in human MDA-MB-231 cells transfected with LSD1 siRNA assessed as necrosis cells level at 8 uM after 24 hrs by Annexin V-FITC/propidium iodide staining-based flow cytometric analysis relative to control; assay type: functional
[18] = target: T1, Lysine-specific histone demethylase 1A; assay: Inhibition of LSD1 in human MDA-MB-231 cells assessed as increase in H3K4me1 methylation by Western blot analysis; assay type: cell-based
MDA-MB-231 [19] = assay: Effect on LSD1 protein levels in human MDA-MB-231 cells up to 8 uM by Western blot analysis; assay type: functional, cell-based
MDA-MB-231 [20] = assay: Induction of apoptosis in human MDA-MB-231 cells transfected with LSD1 siRNA assessed as loss of mitochondrial membrane potential at 8 uM after 24 hrs by JC-1 staining-based flow cytometric analysis; assay type: functional, cell-based
MDA-MB-231 [21] = assay: Induction of apoptosis in human MDA-MB-231 cells transfected with LSD1 siRNA assessed as chromatinorrhexis at 8 uM after 24 hrs by Hoechst 33342 staining-based confocal laser scanning microscopic analysis; assay type: functional, cell-based
MDA-MB-231 [22] = assay: Induction of apoptosis in human MDA-MB-231 cells transfected with LSD1 siRNA assessed as increase in cleaved caspase-7 level at 8 uM after 24 hrs by Western blot analysis; assay type: functional, cell-based
MDA-MB-231 [23] = assay: Inhibition of colony formation in human MDA-MB-231 cells transfected with LSD1 siRNA; assay type: functional, cell-based
MDA-MB-231 [24] = assay: Induction of apoptosis in human MDA-MB-231 cells transfected with LSD1 siRNA assessed as viable cells level at 8 uM after 24 hrs by Annexin V-FITC/propidium iodide staining-based flow cytometric analysis relative to control; assay type: functional
[25] = target: T1, Lysine-specific histone demethylase 1A; assay: Competitive inhibition of LSD1 (unknown origin) using H3Kme2 as substrate by Lineweaver-Burk plot analysis
MDA-MB-231 [26] = assay: Induction of apoptosis in human MDA-MB-231 cells transfected with LSD1 siRNA assessed as late apoptosis level at 8 uM after 24 hrs by Annexin V-FITC/propidium iodide staining-based flow cytometric analysis relative to control; assay type: functional
MDA-MB-231 [27] = assay: Induction of apoptosis in human MDA-MB-231 cells assessed as early apoptosis cells level at 8 uM after 24 hrs by Annexin V-FITC/propidium iodide staining-based flow cytometric analysis relative to control; assay type: functional
MDA-MB-231 [28] = assay: Induction of apoptosis in human MDA-MB-231 cells transfected with LSD1 siRNA assessed as chromatin condensation at 8 uM after 24 hrs by Hoechst 33342 staining-based confocal laser scanning microscopic analysis; assay type: functional, cell-based
MDA-MB-231 [29] = assay: Induction of apoptosis in human MDA-MB-231 cells transfected with LSD1 siRNA assessed as early apoptosis cells level at 8 uM after 24 hrs by Annexin V-FITC/propidium iodide staining-based flow cytometric analysis relative to control; assay type: functional
[30] = target: T1, Lysine-specific histone demethylase 1A; assay: Inhibition of LSD1 in human MDA-MB-231 cells assessed as increase in H3K9me2 methylation by Western blot analysis; assay type: cell-based
MDA-MB-231 [31] = assay: Antiproliferative activity against human MDA-MB-231 cells assessed as reduction in EdU incorporation at 8 uM after 24 hrs by Hoechst 33342 staining-based confocal laser scanning microscopic analysis; assay type: functional, cell-based

C[C@@H]1O[C@@H](OC[C@H]2O[C@@H](Oc3c(-c4ccc(O)c(O)c4)oc4cc(O)cc(O)c4c3=O)[C@H](O)[C@@H](O)[C@@H]2O)[C@H](O)[C@H](O)[C@H]1O [RUTIN]
pIC50 [1]: 5.67

COc1c(O[C@@H]2O[C@H](C(=O)O)[C@@H](O)[C@H](O)[C@H]2O)cc(O)c2c(=O)cc(-c3ccccc3)oc12
pIC50 [2]: 5.53

COc1ccc(-c2oc3c(CC=C(C)C)c(O)cc(O)c3c(=O)c2O)cc1 [ICARITIN]
pIC50 [1]: 4.19

O=C(O)[C@H]1O[C@@H](Oc2cc3oc(-c4ccccc4)cc(=O)c3c(O)c2O)[C@H](O)[C@@H](O)[C@@H]1O [BAICALIN]
pIC50 [2]: 5.45

COc1ccc(-c2oc3c(CC=C(C)C)c(O)cc(O)c3c(=O)c2O[C@@H]2O[C@@H](C)[C@H](O)[C@@H](O)[C@H]2O)cc1
pIC50 [1]: 4.78

COc1ccc([C@@H]2CC(=O)c3c(O)cc(O[C@@H]4O[C@H](CO[C@@H]5O[C@@H](C)[C@H](O)[C@@H](O)[C@H]5O)[C@@H](O)[C@H](O)[C@H]4O)cc3O2)cc1O [HESPERIDIN]
pIC50 [1]: 4.72

O=c1cc(-c2ccccc2)oc2cc(O)c(O)c(O)c12 [BAICALEIN]
pIC50 [2]: 4.90

COc1ccc([C@@H]2CC(=O)c3c(O)cc(O)cc3O2)cc1O [HESPERETIN]
pIC50 [1]: 4.10

COc1ccc(-c2cc(=O)c3c(O)cc(O[C@@H]4O[C@H](CO)[C@@H](O)[C@H](O)[C@H]4O)cc3o2)cc1O
pIC50 [1]: 4.66

O=c1c(O[C@@H]2O[C@H](CO)[C@@H](O)[C@H](O)[C@H]2O)c(-c2ccc(O)c(O)c2)oc2cc(O)cc(O)c12 [ISOQUERCETIN]
Activity (MDA-MB-231 [3]): Active
Activity (MDA-MB-231 [4]): Active
inhibition [5]: Active
Activity (MDA-MB-231 [6]): Active
Activity (MDA-MB-231 [7]): Active
Activity (MDA-MB-231 [8]): 2.6%
Activity (MDA-MB-231 [9]): Active
Activity (MDA-MB-231 [10]): Active
Activity (MDA-MB-231 [11]): 82.6%
Activity (MDA-MB-231 [12]): Active
Activity (MDA-MB-231 [13]): 10.7%
Activity (MDA-MB-231 [14]): Active
inhibition [15]: inactive
Activity (MDA-MB-231 [16]): Active
Activity (MDA-MB-231 [17]): 1.5%
inhibition [18]: Active
pIC50 [1]: 6.02
Activity (MDA-MB-231 [19]): inactive
Activity (MDA-MB-231 [20]): Active
Activity (MDA-MB-231 [21]): Active
Activity (MDA-MB-231 [22]): Active
inhibition (MDA-MB-231 [23]): Active
Activity (MDA-MB-231 [24]): 56.1%
pKi [25]: 6.00
Activity (MDA-MB-231 [26]): 38.9%
Activity (MDA-MB-231 [27]): 1%
Activity (MDA-MB-231 [28]): Active
Activity (MDA-MB-231 [29]): 3.5%
inhibition [30]: Active
Activity (MDA-MB-231 [31]): Active

COc1ccc([C@@H]2CC(=O)c3c(O)cc(O[C@@H]4O[C@H](CO)[C@@H](O)[C@H](O)[C@H]4O)cc3O2)cc1O
pIC50 [1]: 5.32

O=c1c(O)c(-c2ccc(O)c(O)c2)oc2cc(O)cc(O)c12 [QUERCETIN]
pIC50 [1]: 5.90
